Data: publication PMC9481557, “Enzymatic synthesis of benzylisoquinoline alkaloids using a parallel cascade strategy and tyrosinase variants” (Nature Communications, 2022)

Columns and labels:
NCCc1ccc(O)cc1 = test: cells, lysate or membranes; format: cell-based, Candidatus Nitrosopumilus salarius; conditions: apparent constant; N201S variant; copper enzyme; assay details in supplement
EfTyrDC = target: T1, EfTyrDC (Enterococcus faecalis, UniProt Q838D6); test: HPLC conversion; format: biochemical; conditions: PLP, HEPES pH 7.5, 37 °C, 6 h; coupled with CvTAm
T1 construct: gene tdc; recombinant in E. coli BL21(DE3)

CvTAm = target: T2, CvTAm (Chromobacterium violaceum, UniProt Q7NWG4); test: HPLC conversion; format: biochemical; conditions: amine donor; pyruvate acceptor, PLP, HEPES pH 7.5, 37 °C, 6 h
T2 construct: gene CV_2025; recombinant in E. coli BL21(DE3)
T2 sequence (Q7NWG4 entry or part of it): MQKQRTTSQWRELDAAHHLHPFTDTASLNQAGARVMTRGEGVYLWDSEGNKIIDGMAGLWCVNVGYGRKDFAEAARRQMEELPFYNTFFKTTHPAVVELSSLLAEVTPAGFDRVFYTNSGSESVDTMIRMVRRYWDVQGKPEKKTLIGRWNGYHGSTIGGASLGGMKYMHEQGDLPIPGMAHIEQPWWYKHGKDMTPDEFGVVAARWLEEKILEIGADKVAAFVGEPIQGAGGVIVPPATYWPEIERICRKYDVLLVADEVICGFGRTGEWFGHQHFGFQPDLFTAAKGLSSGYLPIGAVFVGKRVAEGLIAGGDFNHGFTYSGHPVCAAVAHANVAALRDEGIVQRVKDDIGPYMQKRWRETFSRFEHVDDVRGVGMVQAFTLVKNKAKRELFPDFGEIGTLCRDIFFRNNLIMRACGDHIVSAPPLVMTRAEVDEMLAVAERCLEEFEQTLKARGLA

T1 sequence (Q838D6 whole entry): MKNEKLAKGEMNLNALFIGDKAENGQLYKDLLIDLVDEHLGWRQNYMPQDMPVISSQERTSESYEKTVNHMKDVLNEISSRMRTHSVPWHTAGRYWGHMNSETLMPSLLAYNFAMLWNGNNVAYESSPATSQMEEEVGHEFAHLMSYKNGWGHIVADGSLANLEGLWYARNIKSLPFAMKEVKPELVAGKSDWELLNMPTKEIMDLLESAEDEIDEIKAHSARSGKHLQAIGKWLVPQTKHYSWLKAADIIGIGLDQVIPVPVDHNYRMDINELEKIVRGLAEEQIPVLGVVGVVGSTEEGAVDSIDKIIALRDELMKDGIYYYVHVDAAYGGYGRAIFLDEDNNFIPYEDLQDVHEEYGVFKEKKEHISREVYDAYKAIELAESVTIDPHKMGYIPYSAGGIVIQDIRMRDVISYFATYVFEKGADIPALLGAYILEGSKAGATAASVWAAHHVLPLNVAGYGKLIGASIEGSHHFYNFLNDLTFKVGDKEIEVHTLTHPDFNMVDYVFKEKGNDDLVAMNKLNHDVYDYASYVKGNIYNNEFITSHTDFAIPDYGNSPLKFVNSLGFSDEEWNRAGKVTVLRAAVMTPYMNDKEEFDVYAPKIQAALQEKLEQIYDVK

CnTYR (Candidatus Nitrosopumilus salarius BD31; N201S)
Km (NCCc1ccc(O)cc1): 1780 µM
kcat (NCCc1ccc(O)cc1): 197.5 s⁻¹

N[C@@H](Cc1ccc(O)c(Cl)c1)C(=O)O [compound 12, 3-Cl-L-tyrosine]
HPLC conversion (EfTyrDC): All of the selected substrates were readily accepted by EfTyrDC and CvTAm

NCCCc1ccccc1 [compound 14, 3-phenyl-1-propylamine]
HPLC conversion (CvTAm): All of the selected substrates were readily accepted by EfTyrDC and CvTAm

N[C@@H](Cc1cccc(O)c1)C(=O)O [compound 9, meta-L-tyrosine]
HPLC conversion (EfTyrDC): All of the selected substrates were readily accepted by EfTyrDC and CvTAm
